Results reported in ChEMBL document CHEMBL5523703, “Modulators for palmitoylation of proteins and small molecules” (Eur J Med Chem, 2024).

How the values were obtained:
[1] = molecular target: Carnitine O-palmitoyltransferase 1, liver isoform (Homo sapiens) (UniProt P50416); experiment: Inhibition of CPT1 (unknown origin) at 10 uM relative to control
Homo sapiens = organism: Homo sapiens; experiment: Binding affinity to ZDHHC (unknown origin) assessed as inactivation constant
[2] = molecular target: T1, Carnitine O-palmitoyltransferase 1, liver isoform (Rattus norvegicus, UniProt P32198); experiment: Inhibition of rat hepatocytes CPT1A; assay type: cell-based, Hepatocyte
T1 sequence (P32198 whole entry): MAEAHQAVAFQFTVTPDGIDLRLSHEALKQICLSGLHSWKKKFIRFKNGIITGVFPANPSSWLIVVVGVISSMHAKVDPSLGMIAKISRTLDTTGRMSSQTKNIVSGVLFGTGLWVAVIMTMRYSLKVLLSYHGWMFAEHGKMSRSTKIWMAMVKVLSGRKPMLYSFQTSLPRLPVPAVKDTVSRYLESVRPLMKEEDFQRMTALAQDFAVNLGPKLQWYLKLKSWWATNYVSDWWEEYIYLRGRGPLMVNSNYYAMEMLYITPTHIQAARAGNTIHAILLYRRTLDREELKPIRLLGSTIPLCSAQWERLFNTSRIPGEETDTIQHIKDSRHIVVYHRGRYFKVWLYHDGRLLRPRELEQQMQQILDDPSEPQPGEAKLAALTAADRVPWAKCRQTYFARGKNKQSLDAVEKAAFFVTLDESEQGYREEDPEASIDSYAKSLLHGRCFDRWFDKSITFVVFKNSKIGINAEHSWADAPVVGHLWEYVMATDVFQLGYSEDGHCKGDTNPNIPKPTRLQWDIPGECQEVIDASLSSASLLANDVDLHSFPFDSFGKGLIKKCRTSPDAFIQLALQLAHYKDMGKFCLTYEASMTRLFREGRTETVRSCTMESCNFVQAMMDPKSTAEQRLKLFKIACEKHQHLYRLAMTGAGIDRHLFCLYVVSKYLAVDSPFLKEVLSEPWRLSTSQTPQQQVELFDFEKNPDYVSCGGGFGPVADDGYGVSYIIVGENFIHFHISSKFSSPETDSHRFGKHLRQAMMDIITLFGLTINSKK

[3] = molecular target: T2, Carnitine O-palmitoyltransferase 1, muscle isoform (Homo sapiens, UniProt Q92523); experiment: Inhibition of CPT1B (unknown origin) in KB cells; assay type: cell-based
T2 sequence (Q92523 whole entry): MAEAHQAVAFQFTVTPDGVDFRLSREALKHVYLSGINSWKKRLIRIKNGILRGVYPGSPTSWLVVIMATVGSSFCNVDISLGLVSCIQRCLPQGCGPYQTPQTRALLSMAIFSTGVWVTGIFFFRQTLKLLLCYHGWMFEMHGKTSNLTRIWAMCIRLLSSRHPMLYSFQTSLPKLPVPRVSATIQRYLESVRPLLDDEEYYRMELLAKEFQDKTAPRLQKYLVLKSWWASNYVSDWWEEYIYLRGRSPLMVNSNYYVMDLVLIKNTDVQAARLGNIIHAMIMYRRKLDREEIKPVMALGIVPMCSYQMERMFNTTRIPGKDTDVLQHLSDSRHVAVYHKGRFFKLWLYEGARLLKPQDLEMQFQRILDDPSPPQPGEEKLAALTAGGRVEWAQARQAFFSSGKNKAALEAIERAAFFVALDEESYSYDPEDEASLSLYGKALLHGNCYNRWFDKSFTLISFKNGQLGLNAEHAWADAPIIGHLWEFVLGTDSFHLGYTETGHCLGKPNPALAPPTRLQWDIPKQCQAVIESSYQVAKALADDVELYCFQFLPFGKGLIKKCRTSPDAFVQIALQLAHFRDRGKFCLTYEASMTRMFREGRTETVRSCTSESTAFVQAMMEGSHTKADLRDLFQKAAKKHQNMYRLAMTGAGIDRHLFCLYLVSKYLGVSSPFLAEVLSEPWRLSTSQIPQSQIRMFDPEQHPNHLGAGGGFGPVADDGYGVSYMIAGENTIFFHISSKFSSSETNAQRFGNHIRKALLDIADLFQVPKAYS

[4] = Inhibition of N-terminal 6His-tagged human TEAD1 YAP-binding domain (219 to 435 residues) expressed in Escherichia coli BL21 (DE3)
[5] = Inhibition of Wnt/beta-catenin signalling in Wnt3a stimulated HEK293 cells assessed as reduction in luciferase activity incubated for 24 hrs by TOPFlash luciferase reporter assay; assay type: cell-based; details: Homo sapiens, HEK293, 24 h
[6] = molecular target: Serine palmitoyltransferase 3 (Homo sapiens, UniProt Q9NUV7); experiment: Inhibition of SPTLC3 (unknown origin)
Serine palmitoyltransferase 3, sequence (Q9NUV7 whole entry): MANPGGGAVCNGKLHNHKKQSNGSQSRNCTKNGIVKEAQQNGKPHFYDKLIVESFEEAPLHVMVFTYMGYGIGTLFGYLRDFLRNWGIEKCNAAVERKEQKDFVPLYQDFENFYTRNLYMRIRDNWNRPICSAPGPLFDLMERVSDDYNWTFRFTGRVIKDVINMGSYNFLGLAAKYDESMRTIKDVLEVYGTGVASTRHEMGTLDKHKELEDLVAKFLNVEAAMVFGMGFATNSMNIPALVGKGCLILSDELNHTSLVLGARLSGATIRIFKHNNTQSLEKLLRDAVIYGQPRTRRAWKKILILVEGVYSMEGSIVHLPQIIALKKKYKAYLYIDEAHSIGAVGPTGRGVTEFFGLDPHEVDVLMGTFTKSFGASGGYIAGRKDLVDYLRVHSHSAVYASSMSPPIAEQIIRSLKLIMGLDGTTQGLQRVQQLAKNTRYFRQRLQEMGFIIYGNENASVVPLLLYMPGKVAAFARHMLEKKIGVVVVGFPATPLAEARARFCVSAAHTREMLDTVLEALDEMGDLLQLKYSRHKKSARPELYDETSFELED

HCC4006 = experiment: cells; details: Homo sapiens, HCC4006, 24 h
[7] = molecular target: T3, Carnitine O-palmitoyltransferase 1, liver isoform (Homo sapiens, UniProt P50416); experiment: Inhibition of CPT1 (unknown origin)
T3 sequence (P50416 whole entry): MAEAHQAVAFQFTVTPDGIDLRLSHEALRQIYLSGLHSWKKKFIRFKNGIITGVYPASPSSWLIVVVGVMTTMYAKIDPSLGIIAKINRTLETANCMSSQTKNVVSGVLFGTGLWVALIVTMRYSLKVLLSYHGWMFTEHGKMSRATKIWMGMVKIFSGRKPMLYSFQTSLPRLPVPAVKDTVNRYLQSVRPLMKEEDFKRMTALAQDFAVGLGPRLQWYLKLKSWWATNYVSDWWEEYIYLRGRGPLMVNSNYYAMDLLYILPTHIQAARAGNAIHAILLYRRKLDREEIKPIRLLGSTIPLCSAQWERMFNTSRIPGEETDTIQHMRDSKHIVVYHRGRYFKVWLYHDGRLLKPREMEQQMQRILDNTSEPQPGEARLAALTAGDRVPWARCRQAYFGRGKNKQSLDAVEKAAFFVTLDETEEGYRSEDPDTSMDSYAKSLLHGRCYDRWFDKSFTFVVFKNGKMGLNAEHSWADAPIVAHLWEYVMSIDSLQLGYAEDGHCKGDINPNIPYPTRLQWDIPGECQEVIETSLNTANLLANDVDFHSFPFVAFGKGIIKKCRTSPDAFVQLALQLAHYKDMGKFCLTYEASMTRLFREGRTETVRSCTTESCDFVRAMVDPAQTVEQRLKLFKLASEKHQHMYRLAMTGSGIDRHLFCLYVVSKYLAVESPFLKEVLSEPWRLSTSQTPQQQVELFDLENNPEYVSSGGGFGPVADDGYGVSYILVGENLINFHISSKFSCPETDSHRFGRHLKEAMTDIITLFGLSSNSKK

[8] = molecular target: Carnitine O-palmitoyltransferase 2, mitochondrial (Rattus norvegicus, UniProt P18886); experiment: Inhibition of rat CPT2
Carnitine O-palmitoyltransferase 2, mitochondrial, sequence (P18886 whole entry): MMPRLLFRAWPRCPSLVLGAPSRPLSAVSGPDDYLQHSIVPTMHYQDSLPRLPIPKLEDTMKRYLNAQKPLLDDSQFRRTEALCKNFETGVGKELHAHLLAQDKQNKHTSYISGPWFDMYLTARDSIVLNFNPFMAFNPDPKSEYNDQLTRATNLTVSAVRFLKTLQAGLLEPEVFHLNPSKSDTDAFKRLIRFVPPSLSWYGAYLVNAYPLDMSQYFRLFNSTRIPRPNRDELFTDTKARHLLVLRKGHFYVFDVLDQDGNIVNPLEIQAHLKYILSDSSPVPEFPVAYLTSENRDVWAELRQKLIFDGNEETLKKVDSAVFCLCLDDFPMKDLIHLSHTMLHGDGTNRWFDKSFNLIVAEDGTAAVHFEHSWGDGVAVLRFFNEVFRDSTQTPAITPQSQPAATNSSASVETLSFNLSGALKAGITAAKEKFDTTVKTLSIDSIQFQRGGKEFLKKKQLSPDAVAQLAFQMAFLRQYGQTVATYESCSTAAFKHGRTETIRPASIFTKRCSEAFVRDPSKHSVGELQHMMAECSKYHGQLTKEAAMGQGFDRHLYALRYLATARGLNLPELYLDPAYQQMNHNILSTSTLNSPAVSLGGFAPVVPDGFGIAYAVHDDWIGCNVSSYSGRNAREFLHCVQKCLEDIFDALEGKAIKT

[9] = molecular target: Protein-cysteine N-palmitoyltransferase HHAT (Homo sapiens, UniProt Q5VTY9); experiment: Inhibition of His-tagged HHAT (unknown origin) transfected in HEK293FT cells; assay type: cell-based
Protein-cysteine N-palmitoyltransferase HHAT, sequence (Q5VTY9 whole entry): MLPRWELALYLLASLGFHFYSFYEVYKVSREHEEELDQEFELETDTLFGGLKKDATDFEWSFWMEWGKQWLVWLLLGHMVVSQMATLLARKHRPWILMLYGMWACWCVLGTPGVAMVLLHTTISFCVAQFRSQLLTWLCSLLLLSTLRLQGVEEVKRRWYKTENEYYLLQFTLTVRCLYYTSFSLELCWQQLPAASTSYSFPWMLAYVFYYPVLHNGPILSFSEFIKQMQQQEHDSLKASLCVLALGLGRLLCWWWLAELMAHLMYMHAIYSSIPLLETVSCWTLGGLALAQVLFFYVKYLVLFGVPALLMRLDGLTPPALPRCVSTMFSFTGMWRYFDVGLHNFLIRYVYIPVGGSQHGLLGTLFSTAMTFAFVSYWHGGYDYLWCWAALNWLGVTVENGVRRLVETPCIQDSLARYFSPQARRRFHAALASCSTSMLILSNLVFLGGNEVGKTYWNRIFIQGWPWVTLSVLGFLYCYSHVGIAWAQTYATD

[10] = molecular target: T4, Membrane-bound ghrelin O-acyltransferase MBOAT4 (Mus musculus, UniProt P0C7A3); experiment: Inhibition of N-terminal His-tagged mouse GOAT expressed in baculovirus infected insect cells
T4 sequence (P0C7A3 whole entry): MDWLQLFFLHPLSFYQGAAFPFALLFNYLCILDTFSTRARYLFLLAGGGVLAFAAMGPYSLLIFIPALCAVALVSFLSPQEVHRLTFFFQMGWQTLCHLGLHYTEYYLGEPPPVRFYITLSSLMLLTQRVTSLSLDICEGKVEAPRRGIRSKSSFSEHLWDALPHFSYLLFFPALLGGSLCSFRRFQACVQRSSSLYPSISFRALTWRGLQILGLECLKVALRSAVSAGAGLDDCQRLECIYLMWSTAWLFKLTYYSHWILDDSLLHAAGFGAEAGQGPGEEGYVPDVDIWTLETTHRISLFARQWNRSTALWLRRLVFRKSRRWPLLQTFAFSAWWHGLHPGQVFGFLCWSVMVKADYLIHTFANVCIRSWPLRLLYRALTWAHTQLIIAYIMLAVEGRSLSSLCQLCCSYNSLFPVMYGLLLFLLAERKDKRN

[11] = molecular target: T2, Carnitine O-palmitoyltransferase 1, muscle isoform; experiment: Inhibition of CPT1B (unknown origin)
[12] = molecular target: Palmitoyltransferase ZDHHC9 (Homo sapiens, UniProt Q9Y397); experiment: Binding affinity to ZDHHC9 (unknown origin) assessed as inhibition constant
Palmitoyltransferase ZDHHC9, sequence (Q9Y397 whole entry): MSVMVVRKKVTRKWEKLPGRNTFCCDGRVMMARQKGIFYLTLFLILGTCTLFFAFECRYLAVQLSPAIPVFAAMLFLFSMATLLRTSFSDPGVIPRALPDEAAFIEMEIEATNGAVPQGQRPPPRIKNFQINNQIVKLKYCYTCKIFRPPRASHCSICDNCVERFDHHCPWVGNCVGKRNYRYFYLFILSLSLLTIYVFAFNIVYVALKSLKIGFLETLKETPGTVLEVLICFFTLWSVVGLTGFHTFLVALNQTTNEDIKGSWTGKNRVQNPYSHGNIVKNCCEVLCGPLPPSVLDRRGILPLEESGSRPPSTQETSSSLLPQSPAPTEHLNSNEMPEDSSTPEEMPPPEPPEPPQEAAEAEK

[13] = molecular target: T5, Membrane-bound ghrelin O-acyltransferase MBOAT4 (Homo sapiens, UniProt Q96T53); experiment: Inhibition of GOAT (unknown origin)
T5 sequence (Q96T53 whole entry): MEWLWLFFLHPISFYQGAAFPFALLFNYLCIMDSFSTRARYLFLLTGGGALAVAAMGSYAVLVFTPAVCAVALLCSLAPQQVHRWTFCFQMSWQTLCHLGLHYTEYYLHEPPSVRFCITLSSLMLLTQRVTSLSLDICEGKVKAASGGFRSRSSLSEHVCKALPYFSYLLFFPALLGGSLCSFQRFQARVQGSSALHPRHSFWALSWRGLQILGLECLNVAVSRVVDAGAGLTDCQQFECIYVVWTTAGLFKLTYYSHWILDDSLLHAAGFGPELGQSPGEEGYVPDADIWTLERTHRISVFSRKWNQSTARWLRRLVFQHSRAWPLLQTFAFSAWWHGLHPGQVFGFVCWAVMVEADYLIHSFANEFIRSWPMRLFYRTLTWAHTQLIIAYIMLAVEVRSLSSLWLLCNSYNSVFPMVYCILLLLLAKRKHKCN

[14] = molecular target: Transcriptional enhancer factor TEF-1 (Homo sapiens, UniProt P28347); experiment: Inhibition of N-terminal His-tagged human TEAD1 expressed in Escherichia coli BL21 (DE3) (209 to 424 residues) by affinity chromatography analysis
Transcriptional enhancer factor TEF-1, sequence (P28347 whole entry, the tested form may be a part): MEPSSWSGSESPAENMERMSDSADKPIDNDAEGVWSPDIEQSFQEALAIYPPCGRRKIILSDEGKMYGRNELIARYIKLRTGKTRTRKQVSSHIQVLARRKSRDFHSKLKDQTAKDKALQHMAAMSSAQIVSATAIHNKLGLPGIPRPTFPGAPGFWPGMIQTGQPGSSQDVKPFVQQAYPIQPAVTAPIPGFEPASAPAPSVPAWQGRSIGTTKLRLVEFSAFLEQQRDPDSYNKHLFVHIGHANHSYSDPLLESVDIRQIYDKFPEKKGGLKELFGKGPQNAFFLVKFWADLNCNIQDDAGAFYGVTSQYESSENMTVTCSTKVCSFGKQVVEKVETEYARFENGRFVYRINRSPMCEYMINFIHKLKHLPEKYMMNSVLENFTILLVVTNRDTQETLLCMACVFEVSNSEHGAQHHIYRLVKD

[15] = molecular target: Palmitoyltransferase ZDHHC7 (Homo sapiens, UniProt Q9NXF8); experiment: Inhibition of ZDHHC7 (unknown origin)
Palmitoyltransferase ZDHHC7, sequence (Q9NXF8 whole entry): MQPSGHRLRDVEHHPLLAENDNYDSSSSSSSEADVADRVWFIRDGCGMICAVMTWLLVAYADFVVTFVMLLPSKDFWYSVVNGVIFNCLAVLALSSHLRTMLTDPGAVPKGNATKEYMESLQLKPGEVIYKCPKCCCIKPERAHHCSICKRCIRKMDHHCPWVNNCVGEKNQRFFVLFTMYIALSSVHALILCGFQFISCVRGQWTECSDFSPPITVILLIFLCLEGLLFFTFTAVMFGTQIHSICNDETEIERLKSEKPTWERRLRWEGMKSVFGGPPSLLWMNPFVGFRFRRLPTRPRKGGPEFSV

SMILES: CCCCCCCCCCCCCC[C@]1(C(=O)O)CO1
- inhibition [1]: 66%

SMILES: N[C@H]1CONC1=O
- Kinact (Homo sapiens): 0.83 M⁻¹ s⁻¹

SMILES: COc1ccc(Cl)cc1S(=O)(=O)N1CC(C(=O)O)Oc2ccc(C(=O)Nc3cccc(F)c3)cc21 (centres undefined)
- IC50 [2]: 1340 nM
- IC50 [3]: 16 nM

SMILES: C=CC(=O)N1CCCN(CCCOCc2ccccc2)C1
- IC50 [4]: 160 nM

SMILES: C[C@H](C(=O)Nc1ccc(-c2ccsc2)cc1)n1cnc2c1c(=O)n(C)c(=O)n2C
- IC50 [5]: 0.5 nM

SMILES: O=C(O)C(=O)c1ccc(OCCOc2ccc3ccccc3c2)s1
- IC50 [3]: 16000 nM

SMILES: COc1ccc(C(=O)N2CC[C@H](NC(=O)c3ccccc3OC(F)(F)F)c3c2cnn3CCCCCNC(=O)CCC2=[N+]3C(=Cc4c(C)cc(C)n4[B-]3(F)F)C=C2)cc1OC
- IC50 [6]: 0.8 nM

SMILES: Cn1nc(C(F)(F)F)cc1C(=O)N[C@@H]1CCN(C(=O)c2cc(Cl)c3nccnc3c2)C[C@@H]1c1ccccc1
- IC50 (HCC4006): 11 nM

SMILES: COc1ccc(C(=O)N2CC[C@H](NC(=O)c3ccccc3Cl)c3c2cnn3C(C)C)cc1OC
- IC50 [6]: 4 nM

SMILES: N[C@H](C(=O)O)c1ccc(O)cc1 [OXFENICINE]
- IC50 [7]: 11000 nM
- IC50 [8]: 79000 nM

SMILES: C=CCNCC(=O)N1CCc2sccc2C1COc1ccc(Cl)c(C)c1 (centres undefined)
- IC50 [9]: 180 nM

SMILES: CCCCCCCC(=O)NC[C@H](NC(=O)[C@H](CO)NC(=O)CN)C(=O)N[C@@H](Cc1ccccc1)C(=O)N[C@@H](CC(C)C)C(=O)N[C@@H](CO)C(=O)N1CCC[C@H]1C(=O)N[C@@H](CCC(=O)O)C(=O)N[C@@H](Cc1cnc[nH]1)C(=O)N[C@@H](CCC(N)=O)C(=O)N[C@@H](CCCCN)C(=O)N[C@@H](C)C(=O)N[C@@H](CCC(N)=O)C(=O)N[C@@H](CCC(N)=O)C(=O)N[C@@H](CCCNC(=N)N)C(=O)N[C@@H](CCCCN)C(=O)N[C@@H](CCC(=O)O)C(=O)N[C@@H](CO)C(=O)N[C@@H](CCCCN)C(=O)N[C@@H](CCCCN)C(=O)N1CCC[C@H]1C(=O)N1CCC[C@H]1C(=O)N[C@@H](C)C(=O)N[C@@H](CCCCN)C(=O)N[C@@H](CC(C)C)C(=O)N[C@@H](CCC(N)=O)C(=O)N1CCC[C@H]1C(=O)N[C@@H](CCCNC(=N)N)C(=O)O
- IC50 [10]: 200 nM

SMILES: CCCCCCN(C(C)=O)C(C(=O)NCc1ccccc1)c1ccc2cc(O)ccc2c1 (centres undefined)
- IC50 [10]: 7540 nM

SMILES: COc1ccc(CN2CCN(CCCSc3cc(C(C)(C)C)c(O)c(C(C)(C)C)c3)CC2)c(OC)c1OC
- IC50 [11]: 16800 nM

SMILES: CC(C)Cc1ccc(C(C)CN2CCN(CCCC[C@H]3CNCCN3CCc3cc(C(F)(F)F)cc(C(F)(F)F)c3)C[C@@H]2Cc2ccc(O)cc2)cc1 (some centres undefined)
- Ki [12]: 66000 nM

SMILES: O=C(Cn1cc(I)c(=O)c(I)c1)Nc1ccc(-c2ccccc2)cn1
- IC50 [5]: 20 nM

SMILES: CC(C)Cc1ccc(C(C)CN2CCNC[C@@H]2CCCCN2CCN(CC(C)c3ccc(CC(C)C)cc3)[C@@H](Cc3ccc(O)cc3)C2)cc1 (some centres undefined)
- Ki [12]: 72000 nM

SMILES: CCCCCCCC(C)(O)/C=C/[C@H](NC(=O)OCc1ccccc1)C(=O)OC (some centres undefined)
- IC50 [13]: 1500 nM

SMILES: C1CCC(C(CC2CCCCN2)C2CCCCC2)CC1 (centres undefined) [PERHEXILINE]
- IC50 [8]: 77000 nM

SMILES: Cc1nc(N)c(CCC2CCN(C(=O)[C@H](C)NC(=O)c3ccnn3C)CC2)c(Cl)n1
- IC50 [13]: 60 nM

SMILES: C=CC(=O)N1C[C@@H](n2cc(C3CCOCC3)nn2)[C@H](OCc2ccc(C(F)(F)F)cc2)C1
- IC50 [14]: 45 nM

SMILES: Cc1nc(N)c2c(CCc3ccc(C(=O)O)cc3)coc2n1
- IC50 [13]: 170 nM

SMILES: CCCCCCCCCCCCCCC(Br)C(=O)OC (centres undefined)
- IC50 [15]: 38000 nM

SMILES: CCCCCCCCN(C(C)=O)C(C(=O)NCc1ccccc1)c1ccc2cc(O)ccc2c1 (centres undefined)
- IC50 [10]: 13100 nM

SMILES: COc1ccc(Cl)cc1S(=O)(=O)N1CCc2ccc(C(=O)Nc3ccc(C(=O)O)cc3)cc21
- IC50 [2]: 1090 nM
- IC50 [3]: 21 nM

SMILES: COc1cc(C(=O)N2CC[C@H](NC(=O)c3ccccc3OC(F)(F)F)c3c2cnn3C(C)C)cnc1OC
- IC50 (HCC4006): 3.9 nM
